Measurements from patent US20180280326A1, “MEDICAMENT FOR PREVENTING OR INHIBITING ACUTE KIDNEY INJURY” (National Cerebral and Cardiovascular Center, priority 2015, published 2018).

Key:
[1] = tested on: AT2 receptor deficient mice, CDDP induced acute kidney injury; assay: CDDP induced acute kidney injury-inhibiting effects on AT2 receptor deficient mice; type: in vivo; conditions: male AT2 receptor deficient mice; CDDP 15 mg/kg i.p.; oral 30 mg/kg per day from 3 days before; 72 hours after CDDP
Method: To 8- to 12-week-old male AT2 receptor deficient mice (n=3 or 5 to 7), 15 mg/kg of cisplatin (CDDP, disease group) or 30 mL/kg of phosphate buffered saline (PBS, normal group) was intraperitoneally administered.
A 0.2 mg/mL aqueous solution of Compound C in 0.5% carboxymethylcellulose (CMC) was prepared and orally administered so that Compound C was at a dose of 30 mg/kg per day from 3 days before the start of the experiment, and the mice were subjected to the experiment. To the control group, the same dose of 0.5% CMC aqueous solution was administered.
At 72 hours after CDDP administration, incision in the abdomen was performed under sevoflurane anesthesia, and the whole blood was collected from the abdominal great vein using a syringe. The blood was centrifuged, and the supernatant (serum) was collected. The serum was stored at −20 to −80° C. Immediately before dissection, spot urine was collected from each mouse.
Using the measurement kits, urinary albumin (Alb) and urinary creatinine (Cr) were measured for the calculation of the urinary Alb/Cr ratio, and also blood urea nitrogen (BUN) was measured. The results are shown in FIG. 3 (urinary Alb/Cr ratio) and FIG. 4 (BUN).

[2] = tested on: human renal cells; conditions: LPS as an endotoxin acting on human renal cells; Non Patent Literature 6; cited from earlier work

SMILES | inhibition of acute kidney injury caused by CDDP (urinary Alb/Cr ratio, FIG. 3; BUN, FIG. 4) [1] | level of IL-6 [2] | level of TNF-α [2]
CCN(CC)C(=O)[C@H](Cc1ccc(NC(=O)c2ccccc2)cc1)C(=O)NS(=O)(=O)c1ccc2ccccc2c1 [Compound C, (2S)-2-[4-(benzoylamino)benzyl]-N,N-diethyl-N′-(2-naphthylsulfonyl)malonamide] | not effective | – | –
CCCCOC(=O)NS(=O)(=O)c1sc(CC(C)C)cc1-c1ccc(Cn2ccnc2)cc1 [Example C21] | – | lowered | lowered
